Reference: US8193349B2, “4-benzylamino-1-carboxylacyl-piperidine derivatives as CETP inhibitors” (Novartis AG, priority 2007, dated 2012)

Target: T1, CETP (Homo sapiens, UniProt P11597)
T1 construct: tissue New Drug Development Research Center, Inc; host or cells: human EDTA plasma from healthy men
T1 sequence (P11597 18-493): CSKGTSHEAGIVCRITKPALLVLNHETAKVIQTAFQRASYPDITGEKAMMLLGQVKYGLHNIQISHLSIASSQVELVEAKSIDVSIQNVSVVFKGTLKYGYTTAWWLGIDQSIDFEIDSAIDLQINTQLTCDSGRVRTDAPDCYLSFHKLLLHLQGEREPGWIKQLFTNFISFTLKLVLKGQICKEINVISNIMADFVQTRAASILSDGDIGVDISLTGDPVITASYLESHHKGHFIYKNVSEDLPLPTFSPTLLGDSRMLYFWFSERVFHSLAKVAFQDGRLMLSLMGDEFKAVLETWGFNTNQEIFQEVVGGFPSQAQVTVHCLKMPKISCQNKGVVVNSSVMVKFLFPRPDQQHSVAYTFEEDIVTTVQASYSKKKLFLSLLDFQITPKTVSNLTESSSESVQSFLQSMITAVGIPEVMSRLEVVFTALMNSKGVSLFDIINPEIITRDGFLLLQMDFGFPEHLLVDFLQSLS
Assay: In vitro CETP activity assay in human plasma
Type: biochemical
Conditions: CETP inhibition; Table 1 does not name the assay, it follows the human plasma assay; read-out: IC50 (nM), Inhibitory Activity of Compounds
Procedure: The cDNA of human pro-apoAI (NCBI accession number: NM_000039) is cloned from human liver Quick-Clone™ cDNA (Clontech, CA) and inserted to a pET28a vector (Novagen, Germany) for bacterial expression. Expressed protein as a fusion protein with 6×His-tag at N-terminus in BL-21 Gold (DE3) (Strategene, CA) is purified using HiTrap Chelating (GE Healthcare, CT).
Pro-apoAI containing microemulsion as a donor particle is prepared following previous reports (J. Biol. Chem., 280:14918-22). Glyceryl trioleate (62.5 ng, Sigma, Mo.), 3-sn-phosphatidylcholine (583 ng, Wako Pure Chemical Industries, Japan), and cholesteryl BODIPY® FL C12 (250 ng, Invitrogen, CA) are dissolved in 1 mL of chloroform. The solution is evaporated, then residual solvent is removed in vacuum for more than 1 hr. The dried lipid mixture is dissolved in 500 μL of the assay buffer (50 mM Tris-HCl (pH7.4) containing 150 mM NaCl and 2 mM EDTA) and sonicated at 50° C. with a microtip (MICROSON™ ULTRASONIC CELL DISRUPTOR, Misonix, Farmingdale, N.Y.) at output power 006 for 2 min. After sonication, the solution is cooled to 40° C., added to 100 μg of human pro-apoAI, and sonicated at output power 004 for 5 min at 40° C. The solution, BODIPY-CE microemulsion as a donor molecule is stored at 4° C. after filtration through a 0.45 μm PVDF filter.
Human EDTA plasma samples from healthy men are purchased from New Drug Development Research Center, Inc. Donor solution is prepared by a dilution of donor microemulsion with assay buffer. Human plasma (50 μL), assay buffer (35 μL) and test compound dissolved in dimethylsulfoxide (1 μL) are added to each well of 96 well half area black flat bottom plate. The reaction is started by the addition of donor solution (14 μL) into each well. Fluorescence intensities are measured every 30 min at 37° C. with excitation wave length of 485 nm and emission wavelength of 535 nm. The CETP activity (FI/min) is defined as the changes of fluorescence intensity from 30 to 90 min.

SMILES | IC50
CC[C@@H]1C[C@H](N(Cc2cc(C(F)(F)F)cc(C(F)(F)F)c2)c2ncc(-c3cnn(C)c3)cn2)C[C@H](CC)N1C(=O)[C@H]1CC[C@H](CC(=O)O)CC1 [Example 1-2] | 142 nM
CC[C@@H]1C[C@H](N(Cc2cc(C(F)(F)F)cc(C(F)(F)F)c2)c2ncc(-c3cnn(C)c3)cn2)C[C@H](CC)N1C(=O)OCCCCC(=O)O [Example 1-5] | 135 nM
CC[C@@H]1C[C@H](N(Cc2cc(C(F)(F)F)cc(C(F)(F)F)c2)c2ncc(-c3cnn(C)c3)cn2)C[C@H](CC)N1C(=O)O[C@H]1CC[C@H](C(=O)O)CC1 [Example 1-8] | 69 nM
CC[C@@H]1C[C@H](N(Cc2cc(C(F)(F)F)cc(C(F)(F)F)c2)c2ncc(-c3cnn(C)c3)cn2)C[C@H](CC)N1C(=O)OCC(C)(C)CCC(=O)O [Example 1-11] | 63 nM
CC[C@@H]1C[C@H](N(Cc2cc(C(F)(F)F)cc(C(F)(F)F)c2)c2ncc(-c3cnn(C)c3)cn2)C[C@H](CC)N1C(=O)O[C@H]1C[C@H](C(=O)O)C1 [Example 1-17] | 86 nM
C[C@@H]1C[C@H](N(Cc2cc(C(F)(F)F)cc(C(F)(F)F)c2)c2ncc(-c3cnn(C)c3)cn2)C[C@H](C)N1C(=O)O[C@H]1CC[C@H](C(=O)O)CC1 [Example 1-19] | 98 nM
CC[C@@H]1C[C@H](N(Cc2cc(Cl)cc(Cl)c2)c2ncc(-c3cnn(C)c3)cn2)C[C@H](CC)N1C(=O)O[C@H]1CC[C@H](C(=O)O)CC1 [Example 1-20] | 91 nM
CC[C@@H]1C[C@H](N(Cc2cc(F)cc(C(F)(F)F)c2)c2ncc(-c3cnn(C)c3)cn2)C[C@H](CC)N1C(=O)O[C@H]1CC[C@H](C(=O)O)CC1 [Example 1-22] | 99 nM
CC[C@@H]1C[C@H](N(Cc2cc(C(F)(F)F)cc(C(F)(F)F)c2)c2ncc(-c3cnn(C)c3)cn2)C[C@H](CC)N1C(=O)O[C@H]1C[C@H](C(C)(C)C(=O)O)C1 [Example 1-27] | 152 nM
CC[C@@H]1C[C@H](N(Cc2cc(C(F)(F)F)cc(C(F)(F)F)c2)c2ncc(-c3cnn(C)c3)cn2)C[C@H](CC)N1C(=O)OCCCCC(N)=O [Example 4, cis-4-{[3,5-bis(trifluoromethyl)benzyl]-[5-(1-methyl-1H-pyrazol-4-yl)-pyrimidin-2-yl]-amino}-2,6-diethyl-piperidine-1-carboxylic acid 4-carbamoyl-butyl ester] | 68 nM
